OC[C@H]1O[C@@H](Oc2c(O)cc(O)cc2/C=C/c2ccc(O)cc2)[C@H](O)[C@@H](O)[C@@H]1O
solubility (mole fraction)
Details	in DMF	in THF	in acetone	in acetonitrile	in ethanol	in ethyl acetate	in isopropanol	in methanol	in n-propanol
278.15 K	0.0145	0.0128	0.0121	0.00281	0.00757	0.00441	0.00535	0.00794	0.00601
283.15 K	0.0175	0.0157	0.0149	0.00349	0.00881	0.00543	0.00652	0.00978	0.0078
288.15 K	0.0214	0.0191	0.0181	0.0043	0.0108	0.00665	0.00838	0.0121	0.00977
293.15 K	0.0255	0.0231	0.0219	0.00526	0.0136	0.00828	0.01	0.0149	0.012
298.15 K	0.0311	0.0277	0.0264	0.00639	0.0159	0.00987	0.0122	0.0181	0.014
303.15 K	0.0369	0.0331	0.0315	0.00772	0.0199	0.0118	0.0146	0.0215	0.0166
308.15 K	0.0442	0.0393	0.0365	0.00927	0.0232	0.0139	0.0174	0.0261	0.0196
313.15 K	0.0522	0.0464	0.0443	0.0111	0.0281	0.0165	0.0205	0.0316	0.0228
318.15 K	0.0614	0.0545	0.052	0.0131	0.0326	0.0192	0.0238	0.0377	0.0269

From BigSolDB 2.1
